Results on two molecules are retold here after US20130296266A1, “Pharmaceutical Composition of Complex Carbohydrates and Essential Oils and Methods of Using the Same” (Dermal Research Laboratories, Inc., priority 1999, published 2013).

One test concerns polymyositis. Description: Mucosal treatment of polymyositis (Example 26). The test is classed as in vivo, human. The note with it: 50 mg daily. On the procedure: A person suffering from colon cancer had been unable to tolerate their colostomy and demanded that their surgeon reconnect their intestines. They refused chemotherapy but requested a preparation prepared according to this invention. They were given a formulation of sodium hyaluronate (Collaborative Laboratories, Inc) which was prepared with a mixture of molecular weights of hyaluronate (as in EXAMPLE 4). When they began taking the hyaluronate preparation, their CEA was 70.1. They have taken the hyaluronate at a dose of 10 mg three times per day mucosally and after 6 months of treatment their CEA has dropped to 4.1. They have taken no other treatments. This patient had also suffered from polymyositis for 15 years. […] After 6 months they have been able to reduce their Prednisone to 5 mg per day.

The next test deals with chronic eczema. As to the kind of experiment: Topical treatment of chronic eczema (Example 16). It counts as in vivo, human. Particulars: person. The text has this:
A person suffered from chronic eczema—scaly and red areas on their neck and arms. They had tried all types of treatments, including cortisone with no effect. They were given a preparation containing a mixture of low and high molecular weight sodium hyaluronate (prepared as in EXAMPLE 4) mixed with 1% Wintergreen Oil, 1% Spearmint Oil, and 0.5% Peppermint Oil. They applied it for one week. […] They have not treated the area for 2 months and has noted no return of signs of eczema.

Regarding `C[C@]12C=CC(=O)C=C1CC[C@@H]1[C@@H]2C(=O)C[C@@]2(C)[C@H]1CC[C@]2(O)C(=O)CO` [Prednisone], in the test with polymyositis, the relief of polymyositis result was “without much relief”.
Take `C[C@]12CCC(=O)C=C1CC[C@@H]1[C@@H]2C(=O)C[C@@]2(C)[C@H]1CC[C@]2(O)C(=O)CO` [cortisone]: in the test on chronic eczema, the effect on eczema result is recorded as “no effect”.
